Experimental data published in ChEMBL document CHEMBL1201862, “PubChem BioAssay data set” (2004).
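Method: 48-hour compound exposure of cells in 96-well plates, five concentrations, linear interpolation of endpoints. GI50 is the concentration that inhibits growth by half.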 Calls of active or inactive are those of the source. Cut-off read from the data, not from the text of the source: active = GI50 up to about 1.1 µM and inactive = higher.

Assays:
Assay in all cases: NCI-60 cell line screen, 48 h
MOLT-4 = system: MOLT-4
NCI-H23 = system: NCI-H23
SN12C = system: SN12C
DU-145 = system: DU-145
NCI/ADR-RES = system: NCI/ADR-RES
CAKI-1 = system: CAKI-1
OVCAR-8 = system: OVCAR-8
SK-MEL-2 = system: SK-MEL-2
UACC-62 = system: UACC-62
MDA-MB-435 = system: MDA-MB-435
COLO 205 = system: COLO 205
786-0 = system: 786-0
HOP-92 = system: HOP-92
SK-MEL-28 = system: SK-MEL-28
OVCAR-5 = system: OVCAR-5
HCT-15 = system: HCT-15
M14 = system: M14
Malme-3M = system: Malme-3M
NCI-H522 = system: NCI-H522
HCC 2998 = system: HCC 2998

Structure (SMILES)	GI50 (MOLT-4)	GI50 (NCI-H23)	GI50 (SN12C)	GI50 (DU-145)	GI50 (NCI/ADR-RES)	GI50 (CAKI-1)	GI50 (OVCAR-8)	GI50 (SK-MEL-2)	GI50 (UACC-62)	GI50 (MDA-MB-435)	GI50 (COLO 205)	GI50 (786-0)	GI50 (HOP-92)	GI50 (SK-MEL-28)	GI50 (OVCAR-5)	GI50 (HCT-15)	GI50 (M14)	GI50 (Malme-3M)	GI50 (NCI-H522)	GI50 (HCC 2998)
Cc1cc2c(cc1C)[n+]([O-])c(C(F)(F)F)c(C(=O)c1ccccc1)[n+]2[O-]	1.69 µM (inactive)	2.12 µM (inactive)	2.74 µM (inactive)	1.62 µM (inactive)	2.49 µM (inactive)	0.76 µM (active)	2.93 µM (inactive)	4.89 µM (inactive)	2.22 µM (inactive)	2.69 µM (inactive)	1.82 µM (inactive)	3.47 µM (inactive)	0.167 µM (active)	4.52 µM (inactive)	3.08 µM (inactive)	3.24 µM	3.73 µM (inactive)	2.39 µM (inactive)	2.99 µM (inactive)	–
CC(C)=NNc1cnnc2ccc([N+](=O)[O-])cc12	37.2 µM (inactive)	> 100 µM (inactive)	36.1 µM (inactive)	> 100 µM (inactive)	> 100 µM (inactive)	52 µM (inactive)	> 100 µM (inactive)	> 100 µM (inactive)	–	67.8 µM (inactive)	36.6 µM (inactive)	51.3 µM (inactive)	> 100 µM (inactive)	–	> 100 µM (inactive)	57.5 µM	78 µM (inactive)	63.8 µM (inactive)	15.5 µM (inactive)	–
O=[N+]([O-])c1ccc(/C=C(/c2ccc([N+](=O)[O-])o2)S(=O)(=O)c2ccccc2)o1	–	19.7 µM (inactive)	–	14.8 µM (inactive)	18 µM (inactive)	18.5 µM (inactive)	4.49 µM (inactive)	17.4 µM (inactive)	6.17 µM (inactive)	15.2 µM (inactive)	2.13 µM (inactive)	3.17 µM (inactive)	12 µM (inactive)	15.6 µM (inactive)	18.6 µM (inactive)	11.6 µM	11.1 µM (inactive)	2.45 µM (inactive)	1.93 µM (inactive)	–
NNc1nncn1N	> 62.4 µM (inactive)	> 51.2 µM (inactive)	> 73.1 µM (inactive)	> 55.2 µM (inactive)	> 90.6 µM (inactive)	> 100 µM (inactive)	> 96.6 µM (inactive)	> 100 µM (inactive)	> 100 µM (inactive)	19.2 µM (inactive)	> 100 µM (inactive)	> 80 µM (inactive)	> 100 µM (inactive)	> 100 µM (inactive)	> 100 µM (inactive)	> 100 µM	> 100 µM (inactive)	> 55 µM (inactive)	> 93.1 µM (inactive)	–
N#CC(C#N)=C/C=C(\Sc1c(Cl)c(Cl)nc(Cl)c1Cl)c1ccc(Cl)cc1	4.56 µM (inactive)	16.2 µM (inactive)	20.8 µM (inactive)	21.1 µM (inactive)	12.8 µM (inactive)	14.5 µM (inactive)	5.05 µM (inactive)	32.4 µM (inactive)	14.3 µM (inactive)	5.4 µM (inactive)	24.4 µM (inactive)	4.45 µM (inactive)	26.5 µM (inactive)	19.2 µM (inactive)	21.5 µM (inactive)	12.9 µM	19.5 µM (inactive)	23 µM (inactive)	18.8 µM (inactive)	–
CCc1n[nH]c(=O)n1/N=C(\C)c1ccc([N+](=O)[O-])cc1	> 100 µM (inactive)	66.8 µM (inactive)	54.7 µM (inactive)	27.5 µM (inactive)	> 100 µM (inactive)	> 100 µM (inactive)	> 100 µM (inactive)	> 100 µM (inactive)	> 100 µM (inactive)	59.7 µM (inactive)	46.5 µM (inactive)	> 100 µM (inactive)	> 100 µM (inactive)	> 100 µM (inactive)	> 100 µM (inactive)	> 100 µM	> 100 µM (inactive)	–	–	–
[N-]=[N+]=CC(=O)C1CCCN1C(=O)c1ccccc1 (configuration not stated)	> 10 µM (inactive)	> 10 µM (inactive)	> 10 µM (inactive)	> 10 µM (inactive)	> 10 µM (inactive)	> 10 µM (inactive)	> 10 µM (inactive)	> 10 µM (inactive)	> 10 µM (inactive)	> 10 µM (inactive)	> 10 µM (inactive)	> 10 µM (inactive)	> 10 µM (inactive)	> 10 µM (inactive)	> 10 µM (inactive)	> 10 µM	> 10 µM (inactive)	> 10 µM (inactive)	–	> 10 µM (inactive)
O=C1NN(Cc2ccccc2)C(=O)N2CCC[C@@H]12	> 100 µM (inactive)	> 100 µM (inactive)	> 100 µM (inactive)	> 100 µM (inactive)	> 100 µM (inactive)	> 100 µM (inactive)	> 100 µM (inactive)	> 100 µM (inactive)	> 100 µM (inactive)	> 100 µM (inactive)	> 100 µM (inactive)	> 100 µM (inactive)	> 100 µM (inactive)	> 100 µM (inactive)	> 100 µM (inactive)	> 100 µM	> 100 µM (inactive)	> 100 µM (inactive)	–	> 100 µM (inactive)
Sc1nnc(Cc2ccc(Cl)cc2)[nH]1	50.2 µM (inactive)	26.6 µM (inactive)	78.2 µM (inactive)	67 µM (inactive)	42.1 µM (inactive)	56.2 µM (inactive)	46.6 µM (inactive)	> 100 µM (inactive)	66.7 µM (inactive)	88.3 µM (inactive)	48 µM (inactive)	61.4 µM (inactive)	16.2 µM (inactive)	> 100 µM (inactive)	> 100 µM (inactive)	59.6 µM	> 100 µM (inactive)	29.1 µM (inactive)	–	> 100 µM (inactive)
CCCCCC1CC=CC(=O)O1 (configuration not stated)	2.25 µM (inactive)	5.69 µM (inactive)	6.73 µM (inactive)	17.4 µM (inactive)	5.73 µM (inactive)	3.72 µM (inactive)	5.97 µM (inactive)	6.84 µM (inactive)	11.5 µM (inactive)	5.43 µM (inactive)	4.06 µM (inactive)	3.85 µM (inactive)	1.2 µM (inactive)	4.51 µM (inactive)	6.84 µM (inactive)	5.07 µM	12 µM (inactive)	0.933 µM (active)	2.92 µM (inactive)	–
CC(=O)O[C@H]1CC[C@@]2(C)C(=CC[C@@H]3[C@@H]2CC[C@]2(C)C(=N/O)/C(=C/c4ccc([N+](=O)[O-])cc4)C[C@@H]32)C1	3.58 µM (inactive)	2.31 µM (inactive)	5.5 µM (inactive)	5.26 µM (inactive)	6.84 µM (inactive)	1.39 µM (inactive)	–	3.53 µM (inactive)	1.76 µM (inactive)	3.32 µM (inactive)	2.29 µM (inactive)	4.89 µM (inactive)	11.9 µM (inactive)	11 µM (inactive)	–	4.6 µM	4.09 µM (inactive)	4.61 µM (inactive)	2.08 µM (inactive)	–
Cc1nc(N)c(N2CCN(S(=O)(=O)N(Cc3ccccc3)Cc3ccccc3)CC2)c(O)n1	> 100 µM (inactive)	21.9 µM (inactive)	32.7 µM (inactive)	20.7 µM (inactive)	71.3 µM (inactive)	–	35.2 µM (inactive)	55.2 µM (inactive)	–	38.5 µM (inactive)	23.3 µM (inactive)	28.9 µM (inactive)	–	17.6 µM (inactive)	28 µM (inactive)	> 100 µM	28.5 µM (inactive)	25.1 µM (inactive)	> 10 µM (inactive)	87.3 µM (inactive)
COc1ccc(CC2C3=C(CCCC3)CCN2C)cc1 (configuration not stated)	> 100 µM (inactive)	> 100 µM (inactive)	> 100 µM (inactive)	> 100 µM (inactive)	> 100 µM (inactive)	> 100 µM (inactive)	> 100 µM (inactive)	> 100 µM (inactive)	65.6 µM (inactive)	> 100 µM (inactive)	> 100 µM (inactive)	> 100 µM (inactive)	–	> 100 µM (inactive)	> 100 µM (inactive)	> 100 µM	44.4 µM (inactive)	> 100 µM (inactive)	–	45.4 µM (inactive)
CCOC(=O)c1cnc2oc3ccc(O)cc3c2c1C	47.4 µM (inactive)	> 100 µM (inactive)	> 100 µM (inactive)	> 100 µM (inactive)	41.6 µM (inactive)	67 µM (inactive)	61.8 µM (inactive)	> 100 µM (inactive)	> 100 µM (inactive)	> 100 µM (inactive)	> 100 µM (inactive)	> 100 µM (inactive)	> 100 µM (inactive)	> 100 µM (inactive)	> 100 µM (inactive)	> 100 µM	> 100 µM (inactive)	29.9 µM (inactive)	–	> 100 µM (inactive)
CC(=O)O[C@H]1[C@H](O[C@H]2CC[C@]34C[C@]35CC[C@]3(C)[C@@H]([C@@]6(C)CC[C@@H](C(C)(C)O)O6)[C@@H](O)C[C@@]3(C)[C@@H]5C[C@H](O[C@@H]3O[C@H](CO)[C@@H](O)[C@H](O)[C@H]3O)[C@H]4C2(C)C)OC[C@@H](O)[C@@H]1O	> 100 µM (inactive)	> 100 µM (inactive)	> 100 µM (inactive)	–	–	> 100 µM (inactive)	> 100 µM (inactive)	> 100 µM (inactive)	> 100 µM (inactive)	–	46.8 µM (inactive)	42.6 µM (inactive)	> 100 µM (inactive)	> 100 µM (inactive)	72.6 µM (inactive)	42.2 µM	54.6 µM (inactive)	> 100 µM (inactive)	> 100 µM (inactive)	> 100 µM (inactive)
